Test results published in patent US11846639B2, “Ligand discovery for T cell receptors” (priority 2014, dated 2023).
Residues, ends and D or L forms follow the SMILES beside them.

How the values were obtained:
5cc7 TCR = assay: Surface plasmon resonance affinity of peptide-I-Ek for 5cc7 TCR; format: binding, murine; conditions: SPR, peptide exchanged into soluble I-Ek
From the text: Refolded Murine TCRs for crystallography and affinity measurements. Refolded 2B4, 226, and 5cc7 were created essentially as described. For […] and 5c2 crystal structures, the 5c1 and 5c2 peptides were fused to the N-terminus of 5cc7β via a 10-amino acid GlySer linker. TCRs were purified via size exclusion chromatography and assayed via SDS-PAGE to ensure 1:1 α:β stoichiometry. If there were an excess of TCRβ, ββ homodimer was purified away from αβ heterodimer via ion exchange chromatography on a MonoQ column (GE Healthcare) using a 20 mM Tris pH 8/20 mM Tris pH8+ 500 mM NaCl buffer system. Proteins were then reexchanged into HBS for further use.
Surface plasmon resonance. Affinity measurements for peptides bound to I-Ek for 226, 2B4, and 5cc7 TCRs were determined via surface plasmon resonance on a Biacore T100 (GE Healthcare). 10 μM of peptide of interest was added to biotinylated Clip-I-Ek. 1 U thrombin/100 μg MHC was added and incubated at 37°. After 1 hour, pH was lowered by adding sodium cacodylate pH 6.2 to 30 mM and sample was incubated at 37° overnight. Samples were then neutralized with 40 mM HEPES pH 7.2 and stored at 4° until use. pMHC exchanged with the peptide of interest were bound to a Biacore SA chip (GE Healthcare) at a low surface density (100-200 RU) to ensure no recapture of analyte. I-Ek exchanged with a null peptide (MCC K99E) was used as the reference surface. […]

5cc7 T cell blasts = format: cell-based, mice; conditions: 5cc7 T cells; peptide presented by I-Ek; read-out: signaling potency (EC50)
Experimental: Selection of library derived I-Ek peptides for further characterization. Peptides were chosen from the deep sequencing data across a wide range of sequence prevalence for further study via SPR, activity, and structural characterization. Peptides were chosen that were recognized by 1, 2, or all 3 I-E^k reactive TCRs. All peptides were tested for activity with both 2B4 and 5cc7 T cell clones regardless of for which TCR they were initially selected. A subset of peptides was chosen to further characterize via SPR. The 2A peptide that was structurally characterized in FIG. 5A was discovered by manual curation of an I-Ek peptide library. 2A is highly homologous to peptides represented in the deep sequencing data and co-clusters with MCC.
Activity assay for I-Ek-selected peptides. Lymphocytes were isolated from 5cc7 or 2B4 TCR transgenic Rag−/− mice. […] CD69 upregulation was measured using an Accuri C6 flow cytometer with an autosampler (BD) by measuring CD69 MFI in the CD4+ gate. Data was then normalized and EC50s measured via Prism. IL-2 release was measured in technical triplicates via anti-IL-2 Elisa (Ready-setgo mouse IL-2 ELISA kit, eBioscience 88-7024), as recommended by the manufacturer. […] Absorbance was measured via SpectraMax Paradigm (Molecular Devices), with EC50 determined via Graphpad Prism.

`CC[C@H](C)[C@H](NC(=O)[C@H](CC(C)C)NC(=O)[C@H](CC(=O)O)NC(=O)[C@H](C)N)C(=O)N[C@@H](C)C(=O)N[C@@H](Cc1ccc(O)cc1)C(=O)N[C@@H](CC(C)C)C(=O)N[C@@H](CCCCN)C(=O)N[C@@H](CCC(N)=O)C(=O)N[C@@H](C)C(=O)N[C@H](C(=O)N[C@@H](CCCCN)C(=O)O)[C@@H](C)O` [MCC, reference compound] (H-ADLIAYLKQATK-OH; N-terminus and C-terminus assumed) was tested, and the Kd (5cc7 TCR) was 41 µM.

`CC(C)C[C@H](NC(=O)[C@H](Cc1ccccc1)NC(=O)[C@H](Cc1ccccc1)NC(=O)[C@H](C)NC(=O)[C@@H](NC(=O)CNC(=O)[C@H](CC(N)=O)NC(=O)[C@H](C)N)C(C)C)C(=O)N[C@H](C(=O)N1CCC[C@H]1C(=O)N[C@@H](Cc1ccccc1)C(=O)N[C@@H](CCCCN)C(=O)O)[C@@H](C)O` [compound 50] (H-ANGVAFFLTPFK-OH; N-terminus and C-terminus assumed) gave a Kd (5cc7 TCR) of 115 µM and an EC50 (5cc7 T cell blasts) of 1.5 µM.
